Patent publication EP0675728B1, “PRODUCTS AND METHODS FOR IMPROVING KE[…] TO THE DERMIS” (STATE OF OREGON BY AND THROUGH OREGON STATE BOARD OF HIGHER …, priority 1992, dated 1994)

Assays:
[1] = tested on: secretion of kalinin
[2] = tested on: Dermal fibroblasts
[3] = tested on: keratinocytes; details: just-subconfluent keratinocyte cultures, 60 minutes' incubation; BM165 mAb 50 µg/mL, 10-mM EDTA
Description: Cells were grown in Keratinocyte Growth Medium (KGM) containing 0.15 mM CaCl2 and subcultured according to the manufacturer's instructions (Clonetics). For most immunocytochemical experiments, first- or second-passage cells were grown in glass or plastic chamber slides (Lab-Tek) or on glass cover slips to approximately 80 percent confluency. For large-scale collection, spent-media cells were grown in 150-cm^2 tissue culture dishes and fed three times per week with 15 mL fresh media.
Keratinocytes were grown to near confluence and either fixed immediately (FIGS. 4B and 4D) or washed with PBS and incubated with BM165 mAb (50 µg/mL) followed by 5-nm gold-conjugated secondary antibody prior to fixation (FIGS. 4A and 4C).
To further pursue these observations, just-subconfluent keratinocyte cultures were separately incubated with purified BM165 mAb for 10 and 60 minutes. After incubation, the cultures were photographed (FIGS. 5A-F). Purified mAbs in PBS, PBS alone, or 10-mM EDTA were incubated with keratinocytes in parallel. Parallel cultures were also incubated with anti-type-VII monoclonal IgG in PBS for the corresponding same length of time.

Structure (SMILES): COc1cc2c(c(OC)c1OC)-c1ccc(OC)c(=O)cc1[C@@H](NC(C)=O)CC2 [colchicine]
- secretion of kalinin into the medium [1]: inhibited

Structure (SMILES): O=C(O)CN(CCN(CC(=O)O)CC(=O)O)CC(=O)O [EDTA]
- rounding and detachment of dermal fibroblasts [2]: rounded and detached
- rounding and detachment of the keratinocytes [3]: extensive rounding and detachment
